Read-outs that look alike come from different tables or passages of the source.
What was measured:
[1] = target: T1, human Yes1 enzyme (Homo sapiens, UniProt P07947); assay: Yes1 enzyme inhibitory activity (time-resolved fluorometry, biotinylated peptide phosphorylation); type: biochemical; conditions: read-out: YES_IC50
T1 construct: made in house
Protocol: (§1) 1. Yes1 Enzyme Inhibitory Activity Yes1 inhibitory activity was determined based on activity of inhibiting phosphorylation reaction of a biotinylated peptide (EGPWLEEEEEAYGWMDF) using a human Yes1 enzyme prepared using a baculovirus expression system. The phosphorylated biotinylated peptide was detected by time-resolved fluorometry using an anti-phosphorylated tyrosine antibody conjugated to europium cryptate, and streptavidin conjugated to XL665, an allophycocyanin derivative. The 50% inhibitory concentration (IC50) was calculated from the inhibition rate relative to the control group without containing the test substance.

[2] = target: T2, human Lck enzyme (Homo sapiens, UniProt P06239); assay: Lck enzyme inhibitory activity (time-resolved fluorometry, biotinylated peptide phosphorylation); type: biochemical; conditions: read-out: LCK_IC50
T2 construct: purchased Carna Biosciences, Inc. 08-170
Protocol: as §1, with “3. Lck” for “1. Yes1”, “Lck” for “Yes1”, “(manufactured by Carna Biosciences, Inc., cat 08-170).” for “prepared using a baculovirus expression system.”

[3] = biotinylated peptide phosphorylation

T2 sequence (P06239 whole entry): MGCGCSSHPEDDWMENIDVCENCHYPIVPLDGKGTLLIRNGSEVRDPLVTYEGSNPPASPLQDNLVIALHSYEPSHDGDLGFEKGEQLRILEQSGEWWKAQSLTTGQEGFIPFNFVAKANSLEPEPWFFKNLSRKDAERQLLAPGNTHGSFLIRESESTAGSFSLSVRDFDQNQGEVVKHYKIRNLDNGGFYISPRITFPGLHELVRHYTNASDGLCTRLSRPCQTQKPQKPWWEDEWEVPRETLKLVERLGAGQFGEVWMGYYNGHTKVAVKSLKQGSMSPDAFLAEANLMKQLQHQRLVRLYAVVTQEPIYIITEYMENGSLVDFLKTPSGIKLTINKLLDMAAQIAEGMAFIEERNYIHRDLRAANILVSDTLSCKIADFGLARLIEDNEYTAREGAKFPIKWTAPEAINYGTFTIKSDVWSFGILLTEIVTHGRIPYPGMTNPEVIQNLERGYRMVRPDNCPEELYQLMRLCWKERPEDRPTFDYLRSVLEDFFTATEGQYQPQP
T1 sequence (P07947 whole entry): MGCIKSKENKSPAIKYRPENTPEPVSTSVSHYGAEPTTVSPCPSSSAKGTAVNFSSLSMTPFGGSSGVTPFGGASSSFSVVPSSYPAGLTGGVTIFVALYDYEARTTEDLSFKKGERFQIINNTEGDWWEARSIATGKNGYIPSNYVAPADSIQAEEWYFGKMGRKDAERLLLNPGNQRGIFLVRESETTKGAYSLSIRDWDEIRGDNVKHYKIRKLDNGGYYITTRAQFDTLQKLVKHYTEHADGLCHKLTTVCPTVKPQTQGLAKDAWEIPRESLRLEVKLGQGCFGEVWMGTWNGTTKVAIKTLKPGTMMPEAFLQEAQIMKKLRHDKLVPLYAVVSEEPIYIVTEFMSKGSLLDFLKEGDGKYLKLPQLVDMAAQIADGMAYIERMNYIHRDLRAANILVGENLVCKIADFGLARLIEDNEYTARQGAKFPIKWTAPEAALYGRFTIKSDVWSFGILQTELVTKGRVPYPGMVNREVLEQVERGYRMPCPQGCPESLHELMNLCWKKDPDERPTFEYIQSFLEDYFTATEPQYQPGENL

IC50 [1] [nM]	IC50 [2] [nM]	IC50 [1, 3] [nM]	IC50 [2, 3] [nM]	Structure (SMILES)
270	1900	–	–	Cc1cc(-n2ncc(C(=O)c3cc4cc(F)c(NS(C)(=O)=O)cc4[nH]3)c2N)cnc1Oc1cccc(Cl)c1 [Example 5-1-042, N-[2-[5-amino-1-[6-(3-chlorophenoxy)-5-methylpyridin-3-yl]pyrazole-4-carbonyl]-5-fluoro-1H-indol-6-yl]methanesulfonamide]
26	4400	–	–	Cc1cc2cc(C(=O)c3cnn(-c4ccc(Oc5cccc(F)c5)c(C)c4)c3N)[nH]c2cc1NS(C)(=O)=O [Example 5-1-211, N-[2-[5-amino-1-[4-(3-fluorophenoxy)-3-methylphenyl]pyrazole-4-carbonyl]-5-methyl-1H-indol-6-yl]methanesulfonamide]
3.4	400	–	–	Cc1cc(-n2ncc(C(=O)c3cc4cc(OC5CCN(C6CS(=O)(=O)C6)CC5)c(-c5ccccc5Cl)cc4[nH]3)c2N)ccc1Oc1ccccc1F [Example 5-1-289, [5-amino-1-[4-(2-fluorophenoxy)-3-methylphenyl]pyrazol-4-yl]-[6-(2-chlorophenyl)-5-[1-(1,1-dioxothietan-3-yl)piperidin-4-yl]oxy-1H-indol-2-yl]methanone]
4.8	320	–	–	Cc1cc(-n2ncc(C(=O)c3cc4cc(OCC(F)F)c(Br)cc4[nH]3)c2N)ccc1Oc1ccccc1F [Example 5-1-150, [5-amino-1-[4-(2-fluorophenoxy)-3-methylphenyl]pyrazol-4-yl]-[6-bromo-5-(2,2-difluoroethoxy)-1H-indol-2-yl]methanone]
9.1	–	–	–	Cc1cc2cc(C(=O)c3cnn(-c4cc(C)c(Oc5ccccc5F)cc4F)c3N)[nH]c2cc1NS(C)(=O)=O [Example 5-1-206, N-[2-[5-amino-1-[2-fluoro-4-(2-fluorophenoxy)-5-methylphenyl]pyrazole-4-carbonyl]-5-methyl-1H-indol-6-yl]methanesulfonamide]
93	2000	–	–	Cc1cc(-n2ncc(C(=O)c3cc4cc(F)c(NS(C)(=O)=O)cc4[nH]3)c2N)cnc1Oc1ccccc1Cl [Example 5-1-041, N-[2-[5-amino-1-[6-(2-chlorophenoxy)-5-methylpyridin-3-yl]pyrazole-4-carbonyl]-5-fluoro-1H-indol-6-yl]methanesulfonamide]
–	–	40	710	Cc1cc(-n2ncc(C(=O)c3cc4cc(C)c(N5C(=O)NC(C)(C(F)(F)F)C5=O)cc4[nH]3)c2N)ccc1Oc1ccccc1F (stereo not drawn) [Example 5-1-472, 3-[2-[5-amino-1-[4-(2-fluorophenoxy)-3-methylphenyl]pyrazole-4-carbonyl]-5-methyl-1H-indol-6-yl]-5-methyl-5-(trifluoromethyl) imidazolidine-2,4-dione]
7.3	7800	–	–	Cc1cc(-n2ncc(C(=O)c3cc4cc(OC(F)F)c(Br)cc4[nH]3)c2N)ccc1Oc1ccccc1F [Example 5-1-152, [5-amino-1-[4-(2-fluorophenoxy)-3-methylphenyl]pyrazol-4-yl]-[6-bromo-5-(difluoromethoxy)-1H-indol-2-yl]methanone]
–	–	31	870	Cc1cc(-n2ncc(C(=O)c3cc4cc(C)c(N5C(=O)NC6(CCCCC6)C5=O)cc4[nH]3)c2N)ccc1Oc1ccccc1F [Example 5-1-470, 3-[2-[5-amino-1-[4-(2-fluorophenoxy)-3-methylphenyl]pyrazole-4-carbonyl]-5-methyl-1H-indol-6-yl]-1,3-diazaspiro[4.5]decane-2,4-dione]
–	–	81	980	Cc1cc(-n2ncc(C(=O)c3cc4cc(C)c(N5C(=O)NC6(CCN(C(=O)OC(C)(C)C)CC6)C5=O)cc4[nH]3)c2N)ccc1Oc1ccccc1F [Example 5-1-471, tert-Butyl 3-[2-[5-amino-1-[4-(2-fluorophenoxy)-3-methylphenyl]pyrazole-4-carbonyl]-5-methyl-1H-indol-6-yl]-2,4-dioxo-1,3,8-triazaspiro[4.5]decane-8-carboxylate]
4.2	240	–	–	Cc1cc(-n2ncc(C(=O)c3cc4cc(OC5CCN(C6CS(=O)(=O)C6)CC5)c(-c5ccccc5C)cc4[nH]3)c2N)ccc1Oc1ccccc1F [Example 5-1-336, [5-amino-1-[4-(2-fluorophenoxy)-3-methylphenyl]pyrazol-4-yl]-[5-[1-(1,1-dioxothietan-3-yl)piperidin-4-yl]oxy-6-(2-methylphenyl)-1H-indol-2-yl]methanone]
–	–	5.3	3000	Cc1cc(-n2ncc(C(=O)c3cc4cc(F)c(NS(=O)(=O)C5CCOCC5)cc4[nH]3)c2N)ccc1Oc1ccccc1F [Example 5-1-493, N-[2-[5-amino-1-[4-(2-fluorophenoxy)-3-methylphenyl]pyrazole-4-carbonyl]-5-fluoro-1H-indol-6-yl]oxane-4-sulfonamide]
38	2600	–	–	Cc1cc(-n2ncc(C(=O)c3cc4cc(F)c(NS(C)(=O)=O)cc4[nH]3)c2N)cnc1Oc1c(F)cccc1Cl [Example 5-1-043, N-[2-[5-amino-1-[6-(2-chloro-6-fluorophenoxy)-5-methylpyridin-3-yl]pyrazole-4-carbonyl]-5-fluoro-1H-indol-6-yl] methanesulfonamide]
26	720	–	–	Cc1cc2cc(C(=O)c3cnn(-c4ccc(Oc5ccccc5F)c(C)c4)c3N)[nH]c2cc1NS(C)(=O)=O [Example 5-1-307, N-[2-[5-amino-1-[4-(2-fluorophenoxy)-3-methylphenyl]pyrazole-4-carbonyl]-5-methyl-1H-indol-6-yl]methanesulfonamide]
120	–	–	–	Cc1cc(-n2ncc(C(=O)c3cc4cc(OCC(F)F)c(-c5cccs5)cc4[nH]3)c2N)ccc1Oc1ccccc1F [Example 5-1-256, [5-amino-1-[4-(2-fluorophenoxy)-3-methylphenyl]pyrazol-4-yl]-[5-(2,2-difluoroethoxy)-6-thiophen-2-yl-1H-indol-2-yl] methanone]
3.9	1000	–	–	Cc1cc(-n2ncc(C(=O)c3cc4cc(OC5CCN(C6CS(=O)(=O)C6)CC5)c(-c5ccccc5C(F)(F)F)cc4[nH]3)c2N)ccc1Oc1ccccc1F [Example 5-1-386, (5-amino-1-(4-(2-fluorophenoxy)-3-methylphenyl)-1H-pyrazol-4-yl)(5-((1-(1,1-dioxidothietan-3-yl)piperidin-4-yl)oxy)-6-(2-(trifluoromethyl)phenyl)-1H-indol-2-yl)methanone]
210	4400	–	–	Cc1cc(-n2ncc(C(=O)c3cc4cc(F)c(NS(C)(=O)=O)cc4[nH]3)c2N)cnc1Oc1cc(F)cc(F)c1 [Example 5-1-045, N-[2-[5-amino-1-[6-(3,5-difluorophenoxy)-5-methylpyridin-3-yl]pyrazole-4-carbonyl]-5-fluoro-1H-indol-6-yl]methanesulfonamide]
52	2700	–	–	Cc1cc(-n2ncc(C(=O)c3cc4cc(F)c(NS(C)(=O)=O)cc4[nH]3)c2N)cnc1Oc1cccc(F)c1F [Example 5-1-044, N-[2-[5-amino-1-[6-(2,3-difluorophenoxy)-5-methylpyridin-3-yl]pyrazole-4-carbonyl]-5-fluoro-1H-indol-6-yl]methanesulfonamide]
–	–	27	650	Cc1cc(-n2ncc(C(=O)c3cc4cc(C)c(N5C(=O)NC6(CCCC6)C5=O)cc4[nH]3)c2N)ccc1Oc1ccccc1F [Example 5-1-474, 3-[2-[5-amino-1-[4-(2-fluorophenoxy)-3-methylphenyl]pyrazole-4-carbonyl]-5-methyl-1H-indol-6-yl]-1,3-diazaspiro[4.4]nonane-2,4-dione]

Reference: patent US10479780B2, “Aminopyrazole derivatives” (Chugai Seiyaku Kabushiki Kaisha, priority 2015, dated 2019)
